Source: patent US8377422B2, “Carboxamide derivatives having cooling properties” (Givaudan S.A., priority 2007, dated 2013)

Columns and labels:
panelists = assay: Cooling intensity: panel tasting of aqueous solutions against menthol at 2 ppm; assay type: in vivo, human; details: for Concentration: aqueous solution with cooling intensity similar to or slightly higher than menthol at 2 ppm, tasted by small group of panelists
panelist = assay: Application in toothpaste: cooling sensation after brushing; assay type: in vivo, human; details: toothgel base with 0.10 g of 10% by weight ethanol solution and 0.30 g saccharin; teeth brushed, mouth rinsed with water
Procedure: 0.10 g of (1R,2S,5R)—N-(2-hydroxy-3-phenoxypropyl)-2-isopropyl-5-methylcyclohexane-carboxamide (at 10% by weight solved in ethanol) and 0.30 g saccharin were mixed in a toothgel base.
A piece of the thus prepared toothpaste was put on a toothbrush and a panelist's teeth were brushed. The mouth was rinsed with water and the water spat out. […] The cooling sensation was perceived for over 50 minutes.

Structure (SMILES)	Concentration (panelists)	also measured
COCCNC(=O)[C@@H]1C[C@H](C)CC[C@H]1C(C)C [(1R,2S,5R)-2-isopropyl-N-(2-methoxyethyl)-5-methylcyclohexanecarboxamide]	1.0 ppm	
CC(C)OCCCNC(=O)[C@@H]1C[C@H](C)CC[C@H]1C(C)C [(1R,2S,5R)-N-(3-isopropoxypropyl)-2-isopropyl-5-methylcyclohexanecarboxamide]	0.1 ppm	
CC(C)[C@@H]1CC[C@@H](C)C[C@H]1C(=O)NCCCOc1ccccn1 [Ex. 2.5, (1R,2S,5R)-2-isopropyl-5-methyl-N-(3-(pyridin-2-yloxy)propyl)cyclohexane-carboxamide]	0.02 ppm	
CC(C)[C@@H]1CC[C@@H](C)C[C@H]1C(=O)NCCOc1ccccc1 [Ex. 2.7, (1R,2S,5R)-2-isopropyl-5-methyl-N-(2-phenoxyethyl)cyclohexanecarboxamide]	0.01 ppm	cooling intensity relative to prior art compound (1R,2S,5R)-2-isopropyl-N-(2-methoxyethyl)-5-methylcyclohexane-carboxamide (panelists; compared with the prior art compound): about 100 times higher
Cc1ccccc1OCCCNC(=O)[C@@H]1C[C@H](C)CC[C@H]1C(C)C [Example 1, (1R,2S,5R)-2-isopropyl-5-methyl-N-(3-(o-tolyloxy)propyl)cyclohexane-carboxamide]		melting point: 89.4 to 91.1 °C
CC(C)[C@@H]1CC[C@@H](C)C[C@H]1C(=O)NCC(O)COc1ccccc1 (stereo partly drawn) [Example 2.2, (1R,2S,5R)—N-(2-hydroxy-3-phenoxypropyl)-2-isopropyl-5-methylcyclohexane-carboxamide]		cooling sensation felt by the panelist (panelist): long lasting cooling sensation; duration of perceived cooling sensation (panelist): over 50 minutes
CC1CCC(C(C)C)C(O)C1 (stereo not shown) [I-Menthol]	2.0 ppm	
CCNC(=O)C1CC(C)CCC1C(C)C (stereo not shown) [WS-3, N-ethyl p-menthanecarboxamide]	1.5 ppm	
